Source: PMC11314410, “Synthesis and Anti-Trypanosoma cruzi Activity of New Pyrazole-Thiadiazole Scaffolds” (Molecules, 2024)
Like-named read-outs stand apart in the source and are kept apart here.

What was measured:
[1] = tested on: Trypomastigotes of T. cruzi (Dm28c-Luc); test: microbe, parasite or virus in culture; format: cell-based, Trypanosoma cruzi; conditions: for IC50 / IC90: Trypanosoma cruzi, Dm28c-Luc, 24 h treatment; for IC50: mean ± SD, read-out: Anti-T. cruzi Activity Trypomastigotes IC50; for IC90: read-out: Anti-T. cruzi Activity Trypomastigotes IC90
Procedure: (§1) Genetically modified T. cruzi parasites, of clone Dm28c (TcI) expressing the firefly luciferase enzyme gene (Dm28c-Luc), were kindly provided by Dr. Cristina Henriques. T. cruzi Dm28c-Luc was maintained in a Vero cell cultivated in RPMI 1640 medium supplemented with 10% FBS. At 4-day post-infection (dpi), trypomastigotes, released in the cell culture supernatant, were harvested, followed by sedimentation (4000 rpm/20 min/4 °C) and quantification in a Neubauer chamber. Isolated trypomastigotes were used in the phenotypic screening assays as well as the antiparasitic activity in 3D cardiac microtissues, recovery (washout), and drug combination assays.
Drug screening was performed against clinically relevant forms of T. cruzi (amastigotes and trypomastigotes). Trypomastigotes, Dm28c-Luc (1 × 10^6 parasites/well), were added to 96-well plates and incubated with pyrazole-thiadiazole derivatives or Bz (100–0.41 µM). After 24 h of treatment (37 °C), the viability of the parasites was analyzed by adding a D-Luciferin solution (300 µg/mL) and luminescence was measured in the Glomax microplate reader.

Vero cells = test: Toxicity in mammalian cells (CellTiter Glo, 72 h); format: cell-based
Procedure: (§2) Vero cell cultures grown in RPMI 1640 medium containing 10% fetal bovine serum (FBS) were cultured at 37 °C in a humidified atmosphere of 5% CO2 [82]. The cultures were used for drug screening assays and to obtain culture-derived trypomastigotes of T. cruzi.
(§3) Vero cells (1.5 ×10^4 cells/well), cultivated for 24 h at 37 °C in white 96-well plates with clear bottoms, were used to assess the toxicity of the pyrazole-thiadiazole derivatives (series 1 and 2). After washing, the cells were incubated for 72 h at 37 °C with different drug concentrations (500–1.95 μM). Cell viability was measured by adding 20 μL/well of CellTiter Glo reagent (Promega Corporation, Madison, WI, USA). This cell viability kit generates a luminescent signal proportional to the amount of ATP. The luminescence readout was performed using the Glomax Microplate Reader (Promega Corporation, Madison, WI, USA). Thus, the 50% cytotoxicity concentration (CC50), which reduces the cell viability by 50% (CC50), was calculated with Prism GraphPad software (version 8.2.1).

[2] = Toxicity in mammalian cells (CellTiter Glo, 72 h); format: cell-based; conditions: African green monkey, Vero cells; 72 h, ATP levels; read-out: Cytotoxicity Vero Cells CC50
Procedure: as §2, §3

[3] = Cardiac toxicity in 2D cardiac monolayers (CellTiter-Glo, 72 h); format: cell-based, Swiss webster mice; conditions: Swiss webster, mouse, primary cardiac muscle cell monolayers (2D culture), ATP levels
Procedure: The primary culture of heart muscle cells was obtained from fetuses of Swiss webster mice. The heart was removed and the ventricles were fragmented and subjected to dissociation with trypsin and collagenase type II (Worthington Biochemical Corporation, Lakewood, USA) dissociation solution. Cell monolayers were employed to evaluate drug-induced cardiotoxicity.
(§4) The 2D cardiac cultures (5 × 10^4 cells/well) and 3D cardiac microtissues (2.5 × 10^4 cells/well) were incubated for 72 h at 37 °C with pyrazole-thiadiazole candidates followed by ATP detection by CellTiter-Glo [86]. A minimum of 3 independent assays were performed in duplicate.

[4] = tested on: T. cruzi (Dm28c-Luc) intracellular parasites in 3D cardiac spheroids; test: Antiparasitic activity in T. cruzi-infected 3D cardiac microtissues; format: cell-based, Trypanosoma cruzi; conditions: 72 h; for inhibition at 100 µM: Trypanosoma cruzi, read-out: Inhibition of parasite load in 3D cardiac microtissue
Procedure: (§5) Three-dimensional (3D) cardiac cells were obtained as previously described. Briefly, isolated cardiac muscle cells (2.5 × 10^4 cells/well) were seeded in 96-well U-bottom plates coated with agarose (1%) to form cell aggregates. Cardiac microtissue (7 days in culture) was employed to determine cardiotoxicity and drug efficacy in more complex systems. All animal-use procedures were approved by the Animal Care and Use Committee of Instituto Oswaldo Cruz (license L017/2022-A2).
Cardiac spheroids (2.5 × 10^4 cells/well), formed after 7 days of cultivation in a U-bottom plate, were infected for 24 h with trypomastigote forms of T. cruzi (Dm28c-Luc) at a ratio of 20:1 parasite-host cell. After washing, the drugs were added at concentrations of IC90, two times IC90, and 100 µM, respecting the CC20 value of cardiac spheroids as the maximum concentration. Bz was added at 100 µM. Luminescence measurements, which reveal the luciferase activity of the viable parasites, were performed after the addition of D-luciferin substrate (300 µg/mL). The luminescent signal was read in the Glomax reader and the results were represented in arbitrary luminescence units (ALU). The fluorescence microscopy images were also acquired from untreated and drug-treated infected 3D microtissues. Three-dimensional cultures were fixed with 4% paraformaldehyde in PBS and labeled with 4′,6-diamidino-2-phenylindole (DAPI). Images were acquired using a Zeiss Axio Imager M2 fluorescence microscope using Axio vision software (version 4.8).

[5] = tested on: T. cruzi (Dm28c-Luc) in Vero cell cultures; test: Washout (recovery) assay in T. cruzi-infected Vero cell cultures; format: cell-based, Trypanosoma cruzi; conditions: for ALUmean of parasite load in cell monolayer, washout assay: 10 days treatment + 10 days without drug; for inhibition at 150 µM: Trypanosoma cruzi, Vero
Procedure: The culture medium of the untreated and treated infected cultures was replaced every 3 or 4 days by a fresh medium with or without the pyrazole-thiadiazole derivatives. The presence of free viable parasites in the culture supernatant was monitored at each medium change by adding luciferin (300 µg/mL) followed by readout on a Glomax microplate reader. At the endpoint, culture supernatants and cell monolayers were evaluated for viable parasites. Positive and negative controls were performed using Bz (150 µM) and DMSO (≤1%), respectively. A minimum of 3 independent experimental runs were performed with 12 replicates.

[6] = Cardiac toxicity in 3D cardiac spheroids (CellTiter-Glo, 72 h); format: cell-based, Swiss webster mice; conditions: Swiss webster, mouse, 3D cardiac microtissue (cardiac spheroids), ATP levels, read-out: Toxicity CC50 3D Culture
Procedure: as §5, §4

[7] = tested on: Intracellular amastigotes of T. cruzi (Dm28c-Luc); test: microbe, parasite or virus in culture; format: cell-based, Trypanosoma cruzi; conditions: for IC50 / IC90: Trypanosoma cruzi; for IC90: read-out: Anti-T. cruzi Activity Intracellular Amastigotes IC90
Procedure: as §1
The activity of pyrazole-thiadiazole derivatives against intracellular amastigotes was evaluated in 24 h-T. cruzi infected Vero cell cultures (1.5 × 10^4 cells/well) at a 10:1 ratio. The cultures were washed and incubated with serial dilutions of the derivatives or Bz (100–0.41 µM). Drug treatment was carried out for 72 h at 37 °C and the parasite viability was determined by luminescence readout after D-Luciferin substrate addition (300 µg/mL). The reading was performed in the Glomax reader. The cell cultures incubated with the culture medium containing dimethylsulphoxide (DMSO; concentration ≤ 1%) were used as the […]. The concentrations required to inhibit parasite viability by 50% (IC50) and 90% (IC90) were calculated using Prism GraphPad software (version 8.2.1). The selectivity index (SI), which measures the window between cytotoxicity (CC50) and anti-T. cruzi activity (IC50), was calculated as CC50/IC50. A minimum of 3 independent assays in duplicate were performed.

[8] = tested on: T. cruzi in 3D cardiac spheroids; parameters: method as in PMID 33383023; conditions: 10 µM; cited from earlier work
[9] = tested on: T. cruzi infection of HeLa spheroids; parameters: method as in PMID 36099853; conditions: 40 µM pretreatment of HeLa spheroids; cited from earlier work
[10] = Vero, read-out: Intracellular Amastigotes pIC50 (converted)
[11] = Dm28c-Luc in Vero cells, 72 h treatment, mean ± SD, read-out: Anti-T. cruzi Activity Intracellular Amastigotes IC50
[12] = Dm28c-Luc in Vero cells, 72 h treatment, mean ± SD

Q: Which melting point does the source give for `Nc1nnc(-c2cnn(-c3ccc([N+](=O)[O-])cc3)c2N)s1` [2k, 5-Amino-2-(5-amino-1-(4-nitrophenyl)-1H-pyrazol-4-yl)-1,3,4-thiadiazole] here?
A: 321 to 323 °C

Q: And the “Trypomastigotes SI (CC50 of Vero cells/IC50 of trypomastigotes)” value [1]?
A: >5

Q: And the IC50 ([1]; 24 h)?
A: > 100 µM

Q: And the IC90 [1]?
A: > 100 µM

Q: What about the “CC20 for Vero cell monolayers” value (Vero cells) of the same compound?
A: > 500 µM

Q: And the CC50 at 72 h [2]?
A: > 500 µM

Q: What about the CC50 at 72 h [3] of the same compound?
A: 191 ± 21 µM

Q: And the “ALUmean (luminescence, parasite load) in 3D cardiac microtissue” value ([4]; 100 µM)?
A: 5366 ± 2348 ALU

Q: And the inhibition at 100 µM ([4]; 100 µM, vs infected untreated)?
A: 86%

Q: What about the “Activity relative to 1c in cell monolayer, washout assay” value ([5]; 150 µM) of the same compound?
A: 11.8 times

Q: What about the “ALUmean of parasite load in cell monolayer, washout assay” value (from here on “ALUmean of parasite load”) ([5]; 150 µM) of the same compound?
A: 4845 ± 2419 ALU

Q: What about the “Activity relative to 1c in cell monolayer, washout assay” value ([5]; 300 µM) of the same compound?
A: 19.8 times

Q: What about the “Reduction of parasite release vs untreated infected group” value ([5]; 300 µM, 14 dpi) of the same compound?
A: 93%

Q: And the “ALUmean of parasite load” value ([5]; 300 µM)?
A: 3349 ± 1767 ALU

Q: What about the “Prevention of reactivation of infection after drug withdrawal” value ([5]; washout assay) of the same compound?
A: did not prevent parasite recrudescence

Q: What about the CC50 at 72 h [6] of the same compound?
A: > 500 µM

Q: And the IC50 [7, 10]?
A: 10.5 µM

Q: What about the IC50 [7, 11] of the same compound?
A: 10.4 ± 1.21 µM

Q: What about the IC90 [7, 12] of the same compound?
A: 23.2 ± 4.23 µM

Q: With `O=C(Cn1ccnc1[N+](=O)[O-])NCc1ccccc1` [Bz, benznidazole, reference compound] as the compound, how does the “Reduction of parasite load” value [8] read?
A: 92%

Q: What about the “Trypomastigotes SI (CC50 of Vero cells/IC50 of trypomastigotes)” value [1] of the same compound?
A: >38.88

Q: And the IC50 [1]?
A: 12.8 ± 2.66 µM

Q: What about the IC90 [1] of the same compound?
A: > 100 µM

Q: And the CC50 at 72 h [2]?
A: > 500 µM

Q: And the CC50 at 72 h [3]?
A: > 500 µM

Q: And the “ALUmean (luminescence, parasite load) in 3D cardiac microtissue” value ([4]; 100 µM)?
A: 3520 ± 2198 ALU

Q: What about the inhibition at 100 µM [4] of the same compound?
A: 91%

Q: And the “ALUmean of parasite load” value ([5]; 150 µM)?
A: 3426 ± 1727 ALU

Q: What about the inhibition at 150 µM ([5]; read-out: Inhibition in the release of trypomastigotes) of the same compound?
A: 77%

Q: And the inhibition at 150 µM ([5]; read-out: Inhibition of parasite release)?
A: 82%

Q: And the CC50 at 72 h [6]?
A: > 500 µM

Q: And the “Intracellular Amastigotes SI (CC50 of Vero cells/IC50 of intracellular amastigotes)” value [7]?
A: >158.23

Q: What about the IC50 [7, 10] of the same compound?
A: 3.63 µM

Q: What about the IC50 [7, 11] of the same compound?
A: 3.61 ± 1.25 µM

Q: And the IC90 [7, 12]?
A: 11.5 ± 4.17 µM

Q: Which “Reduction of T. cruzi infection level” value [9] does the source give for `Oc1ccc(/C=C/c2cc(O)cc(O)c2)cc1` [resveratrol] here?
A: 50%
